Molecules are shown by their SMILES.

From patent US20230278972A1, “SUBSTITUTED HALOALKYL SULFONANILIDE HERBICIDES” (FMC Corporation, priority 2020, published 2023) come the findings set out here.

Common to all, as to type: in vivo
Assay [1] has as its system blackgrass (Alopecurus myosuroides). Put plainly: Test A1 preemergence, blackgrass. In a few lines:
(§1)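 Both timings started from seed in a loam-sand blend. Preemergence pots got a directed soil application immediately; postemergence pots were sprayed when seedlings had one or two leaves and stood 2–10 cm. Each compound was prepared in a non-phytotoxic solvent plus surfactant.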

The next assay has as its system corn (Zea mays). Put plainly: Test A1 preemergence, corn. In a few lines: (§2)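 Pre: seeds in loam/sand blend, directed soil spray. Post: potted plants, same soil, 2–10 cm, 1–2 leaf stage. Chemicals in non-phytotoxic solvent + surfactant for both.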
Assay [2] relates to goosegrass (Eleusine indica). Kind of assay: Test A1 preemergence, goosegrass. In outline:
as §1

Assay [3] deals with ragweed (common ragweed, Ambrosia artemisiifolia). Kind of assay: Test A1 preemergence, ragweed. In outline: as §1
For assay [4], the system named is wheat (Triticum aestivum). Kind of assay: Test A1 preemergence, wheat. In a few lines: as §1
Assay [5] has as its system goosegrass (Eleusine indica). Put plainly: Test A1 postemergence, goosegrass. The settings on record: Postemergence. In outline: as §2
In assay [6] the test system is Oat, Wild (wild oat, Avena fatua). Kind of assay: Test A1 postemergence, Oat, Wild. The settings on record: Postemergence. In a few lines: as §2
Assay [7] concerns Pigweed, Palmer (palmer amaranth, palmer pigweed, Amaranthus palmeri). Put plainly: Test A1 postemergence, Pigweed, Palmer. The settings on record: Postemergence. In a few lines:
as §2

For assay [8], the system named is ragweed (common ragweed, Ambrosia artemisiifolia). Kind of assay: Test A1 postemergence, ragweed. The settings on record: Postemergence. In outline:
as §2

Assay [9] concerns horseweed (Erigeron canadensis). Kind of assay: Test A1 postemergence, horseweed. The settings on record: Postemergence. In outline: as §2
Where [10] appears, read: 31 g ai/ha, 0 to 100 scale (0 no effect, 100 complete control).
Setting [11] is: 125 g ai/ha, 0 to 100 scale, 0 no effect, 100 complete control.
Setting [12] is: 31 g ai/ha, 0 to 100 scale (0 no effect, 100 complete control), 10 days.

For the compound `Cc1cc(C)c(N(COC(=O)N(C)C)S(=O)(=O)C(F)(F)F)cc1C1=NOC2CCCC12` (centres unmarked) [Compound 317], the “Plant response rating, Blackgrass” value in [1] (setting [10]) and in [1] (setting [11]) was 0 in each case. Further, the “Plant response rating, Corn” value in the assay on corn (Zea mays) (setting [10]) and in the assay on corn (Zea mays) (setting [11]) was 0 throughout. The “Plant response rating, Goosegrass” value stood at 0 in [2] (setting [10]); 0 in assay [2] (setting [11]); 0 in assay [5] (setting [12]); 0 in [5] (125 g ai/ha, 0 to 100 scale). Also, the “Plant response rating, Ragweed” value in assay [3] (setting [10]) was 0; in assay [3] (setting [11]), 0; in assay [8] (setting [12]) it was 10; in assay [8] (125 g ai/ha, 0 to 100 scale), 0. In addition, the “Plant response rating, Wheat” value in assay [4] (setting [10]) and in assay [4] (setting [11]) was 0 each time. The “Plant response rating, Oat, Wild” value in assay [6] (setting [12]) worked out at 0; in assay [6] (125 g ai/ha, 0 to 100 scale), 0. Besides, the “Plant response rating, Pigweed, Palmer” value is 0 in [7] (setting [12]) and 0 in [7] (125 g ai/ha, 0 to 100 scale). The “Plant response rating, Horseweed” value in [9] (setting [12]) worked out at 0; in assay [9] (125 g ai/ha, 0 to 100 scale), 0.

As for `CCOC1CC(c2cc(NS(=O)(=O)C(F)(F)F)c(C)cc2C)=NO1` (centres unmarked) [Compound 318], the “Plant response rating, Blackgrass” value in assay [1] (setting [10]) is reported as 30; in [1] (setting [11]), 70. Besides, the “Plant response rating, Corn” value was found to be 0 in the assay with corn (Zea mays) (setting [10]) and 70 with corn (Zea mays) (setting [11]). Moreover, the “Plant response rating, Goosegrass” value in [2] (setting [10]) amounted to 80; in assay [2] (setting [11]) it was 100; in assay [5] (setting [12]), 30; in [5] (125 g ai/ha, 0 to 100 scale) it was 30. The “Plant response rating, Ragweed” value was 50 in assay [3] (setting [10]); 70 in assay [3] (setting [11]); 60 in assay [8] (setting [12]); 80 in [8] (125 g ai/ha, 0 to 100 scale). Further, the entries for the “Plant response rating, Wheat” value in assay [4] (setting [10]) and in assay [4] (setting [11]) were 0 and 50, respectively. Further, the “Plant response rating, Oat, Wild” value in assay [6] (setting [12]) was determined as 0; in assay [6] (125 g ai/ha, 0 to 100 scale) it was 10. The “Plant response rating, Pigweed, Palmer” value in assay [7] (setting [12]) was 30; in [7] (125 g ai/ha, 0 to 100 scale), 50. Besides, the “Plant response rating, Horseweed” value in assay [9] (setting [12]) was determined as 20; in assay [9] (125 g ai/ha, 0 to 100 scale), 50.

With `COCC1CC(c2cc(NS(=O)(=O)C(F)(F)F)c(C)cc2C)=NO1` (centres unmarked) [Compound 319], the “Plant response rating, Blackgrass” value in [1] (setting [10]) worked out at 30; in assay [1] (setting [11]), 50. The “Plant response rating, Corn” value was 40 in the assay on corn (Zea mays) (setting [10]) and 90 with corn (Zea mays) (setting [11]). Further, the “Plant response rating, Goosegrass” value in assay [2] (setting [10]) was 90; in assay [2] (setting [11]), 90; in assay [5] (setting [12]), 70; in [5] (125 g ai/ha, 0 to 100 scale), 90. In addition, the “Plant response rating, Ragweed” value in assay [3] (setting [10]) amounted to 0; in assay [3] (setting [11]), 70; in [8] (setting [12]) it was 30; in assay [8] (125 g ai/ha, 0 to 100 scale) it was 60. Also, the “Plant response rating, Wheat” value in assay [4] (setting [10]) came to 80; in assay [4] (setting [11]), 100. For the same compound, the “Plant response rating, Oat, Wild” value is 0 in assay [6] (setting [12]) and 10 in [6] (125 g ai/ha, 0 to 100 scale). Moreover, the “Plant response rating, Pigweed, Palmer” value was found to be 0 in assay [7] (setting [12]) and 50 in assay [7] (125 g ai/ha, 0 to 100 scale). Also, the “Plant response rating, Horseweed” value in assay [9] (setting [12]) amounted to 10; in [9] (125 g ai/ha, 0 to 100 scale) it was 40.

On to `Cc1c(C(=O)N(C)C)cc(NS(=O)(=O)C(F)(F)F)c(Cl)c1F` [Compound 320], for which the “Plant response rating, Blackgrass” value in assay [1] (setting [10]) and in [1] (setting [11]) was 0 each time. The “Plant response rating, Corn” value is 0 in the assay with corn (Zea mays) (setting [10]) and 30 in the assay on corn (Zea mays) (setting [11]). For the same compound, the “Plant response rating, Goosegrass” value was determined as 80 in assay [2] (setting [10]); 100 in assay [2] (setting [11]); 40 in assay [5] (setting [12]); 0 in assay [5] (125 g ai/ha, 0 to 100 scale). The “Plant response rating, Ragweed” value in assay [3] (setting [10]) was found to be 60; in assay [3] (setting [11]), 70; in assay [8] (setting [12]), 40; in [8] (125 g ai/ha, 0 to 100 scale), 80. In addition, the results for the “Plant response rating, Wheat” value in assay [4] (setting [10]) and in [4] (setting [11]) were 10 and 50, respectively. For the same compound, the “Plant response rating, Oat, Wild” value is reported as 0 in assay [6] (setting [12]) and 0 in [6] (125 g ai/ha, 0 to 100 scale). Moreover, the “Plant response rating, Pigweed, Palmer” value in assay [7] (setting [12]) came out at 40; in [7] (125 g ai/ha, 0 to 100 scale) it was 80. The “Plant response rating, Horseweed” value in assay [9] (setting [12]) worked out at 50; in [9] (125 g ai/ha, 0 to 100 scale), 70.
